Results: ChEMBL document CHEMBL3044541, “Control of crown rot-causing fungal pathogens of banana by inorganic salts and a surfactant” (Crop Prot, 2007)
Activity calls are given as the source filed them. No cut-off for these calls is given here.

Assays:
Colletotrichum musae [1] = experiment: Growth inhibition of Colletotrichum musae assessed as inhibition of mycelial growth up to 160 g/l incubated for 15 min followed by compound washout measured after 7 days in absence of surfactant APSA 80; format: functional
Fusarium verticillioides [2] = experiment: Growth inhibition of Fusarium verticillioides assessed as inhibition of mycelial growth up to 160 g/l incubated for 15 min followed by compound washout measured after 7 days in absence of surfactant APSA 80; format: functional
Thielaviopsis paradoxa [3] = experiment: Antifungal activity against Ceratocystis paradoxa assessed as inhibition of conidium germination at 5 g/l incubated for 15 min followed by compound washout measured after 2 days by microscopic analysis in absence of surfactant APSA 80; format: functional, organism-based
Colletotrichum musae [4] = experiment: Antifungal activity against Colletotrichum musae assessed as inhibition of conidium germination at 5 g/l incubated for 15 min followed by compound washout measured after 2 days by microscopic analysis in absence of surfactant APSA 80; format: functional, organism-based
Fusarium verticillioides [5] = experiment: Growth inhibition of Fusarium verticillioides assessed as inhibition of mycelial growth up to 160 g/l incubated for 15 min followed by compound washout measured after 7 days in presence of surfactant APSA 80; format: functional, organism-based
Fusarium verticillioides [6] = experiment: Antifungal activity against Fusarium verticillioides assessed as inhibition of conidium germination at 5 g/l incubated for 15 min followed by compound washout measured after 2 days by microscopic analysis in absence of surfactant APSA 80; format: functional, organism-based
Fusarium verticillioides [7] = experiment: Antifungal activity against Fusarium verticillioides assessed as inhibition of conidium germination at 5 g/l incubated for 15 min followed by compound washout measured after 7 days by microscopic analysis in presence of surfactant APSA 80; format: functional, organism-based
Lasiodiplodia theobromae [8] = experiment: Antifungal activity against Lasiodiplodia theobromae assessed as inhibition of conidium germination at 5 g/l incubated for 15 min followed by compound washout measured after 7 days by microscopic analysis in presence of surfactant APSA 80; format: functional, organism-based
Thielaviopsis paradoxa [9] = experiment: Growth inhibition of Ceratocystis paradoxa assessed as inhibition of mycelial growth up to 160 g/l incubated for 15 min followed by compound washout measured after 7 days in presence of surfactant APSA 80; format: functional
Colletotrichum musae [10] = experiment: Growth inhibition of Colletotrichum musae assessed as inhibition of mycelial growth up to 160 g/l incubated for 15 min followed by compound washout measured after 7 days in presence of surfactant APSA 80; format: functional, organism-based
Colletotrichum musae [11] = experiment: Antifungal activity against Colletotrichum musae assessed as inhibition of conidium germination at 5 g/l incubated for 15 min followed by compound washout measured after 7 days by microscopic analysis in presence of surfactant APSA 80; format: functional, organism-based
Thielaviopsis paradoxa [12] = experiment: Growth inhibition of Ceratocystis paradoxa assessed as inhibition of mycelial growth up to 160 g/l incubated for 15 min followed by compound washout measured after 7 days in absence of surfactant APSA 80; format: functional, organism-based
Lasiodiplodia theobromae [13] = experiment: Antifungal activity against Lasiodiplodia theobromae assessed as inhibition of conidium germination at 5 g/l incubated for 15 min followed by compound washout measured after 2 days by microscopic analysis in absence of surfactant APSA 80; format: functional, organism-based
Thielaviopsis paradoxa [14] = experiment: Antifungal activity against Ceratocystis paradoxa assessed as inhibition of conidium germination at 5 g/l incubated for 15 min followed by compound washout measured after 7 days by microscopic analysis in presence of surfactant APSA 80; format: functional, organism-based

Structure (SMILES) | Activity (Colletotrichum musae [1]) | Activity (Fusarium verticillioides [2]) | inhibition (Thielaviopsis paradoxa [3]) | inhibition (Colletotrichum musae [4]) | Activity (Fusarium verticillioides [5]) | inhibition (Fusarium verticillioides [6]) | inhibition (Fusarium verticillioides [7]) | inhibition (Lasiodiplodia theobromae [8]) | Activity (Thielaviopsis paradoxa [9]) | Activity (Colletotrichum musae [10]) | inhibition (Colletotrichum musae [11]) | Activity (Thielaviopsis paradoxa [12]) | inhibition (Lasiodiplodia theobromae [13]) | inhibition (Thielaviopsis paradoxa [14])
O=C([O-])[O-].[Na+].[Na+] | inactive | inactive | – | – | – | – | – | – | – | – | – | – | – | –
O=C([O-])O.[Na+] | inactive | inactive | Active | Active | inactive | Active | Active | Active | inactive | inactive | Active | inactive | Active | Active
